Measurements: EP3878446A1, “HSD11B1 INHIBITORS FOR USE IN IMMUNOTHERAPY AND USES THEREOF” (UNIVERSITE DE GENEVE, priority 2020, dated 2021)

Tests used:
[1] = test system: human peripheral blood mononuclear cell (PBMC); test: antigen recall assay (IFNγ secretion by CMV-stimulated PBMC, ELISA); assay type: cell-based; details: co-treatment: 1 µM HSD11B1 inhibitor + 1 µg/ml anti PD-1 (G4K), compared to anti-PD-1 or HSD11B1 inhibitor alone, 1 µg/ml CMV antigen, 50 ng/ml cortisone, 6 days, Fig. 1
Source text: Response to immunotherapy rely on critical biological steps including antigen presentation and T cell activation. Therefore, the therapeutic potential of combining immunotherapy with HSD11B1 inhibition was investigated in an antigen recall assay as described below. Antigen recall assay is the gold standard in vitro method to assess the bioactivity of immune checkpoint inhibitors because it measures at the same time the potential of antigen presenting cells to activate T cell and the actual T cell activation, taking into account thereby the two critical mechanisms required for an optimal response to immunotherapy. The level of IFNγ secreted in this human immune cell-based assay is considered as a good indicator of the T cells activation to immunomodulatory molecules. Cryopreserved human peripheral blood mononuclear cell (PBMC) isolated from cytomegalovirus (CMV) positive heathy donors were thawed in a 37°C water bath and seeded in round bottom 96 well plates at 2 X 10^5 cells/well in 150 µL final volume of RPMI media supplemented with 10% fetal bovin serum, 1% non-essential amino acids, 0.01M Hepes, 1% Penicilin/Streptomycin, 1% L-glutamine and 50 ng/ml cortisone). […] Plates were incubated at 37°C, 6% CO2. After 6 days, supernatants were assayed for IFNγ by ELISA (Biolegend).

[2] = test system: GFP-expressing Renca cells; test: murine T cell-mediated tumor cell-killing assay (growth of GFP Renca cells, Incucyte imaging); assay type: cell-based; details: combination: 10 µM HSD11B1 inhibitor + anti-PD-1 (mouse), compared to single treatments; 200 ng/ml 11-DHC; BMDCs, OT-I CD8 T cells, SIINFEKL loaded GFP Renca cells; Fig. 2
Procedure: Another critical biological mechanism required for an optimal response to immunotherapy of cancer is the capacity of T cells to kill the tumor target cells. The therapeutic potential of combining immunotherapy with HSD11B1 inhibition for the treatment of cancer was therefore assessed in a murine T cell-mediated tumor cell-killing assay. Wild type C57BL/6J murine bone marrow progenitors cells were maintained with 20 ng/ml GMCSF (Peprotech) to induce differentiation into bone marrow derived dendritic cells (BMDCs) for 6 days. At day 6, 2 X 10^4 BMDCs/well together with 2 X 10^3 Renca tumor cells/well were seeded in flat bottom 96 well plate in RPMI 1640 supplemented with 10% FBS, 1% Penicillin/streptomycin, 1% L-glutamine, […] betamercaptoethanol and 0.5% of sodium pyruvate, 32 ng/ml R848 (Invivogen) and 25 µg/ml ovalbumin (Invivogen). After 24 hours, cell supernatant was removed and 1x10^5 OT-I CD8 T cells/well were added in very low endotoxin RPMI 1640 medium supplemented with 10% fetal bovine serum, 1% L-glutamine, 1% penicillin-streptomycin, 1% sodium-pyruvate, 1% glutamine, 1%, non-essential amino acids and […] beta-mercaptoethanol. After 24 hours, 5x10^3 H2kb-recombined; SEQ ID NO: 1 […] (Invivogen) loaded-GFP-expressing Renca cells/well were added. The growth of GFP Renca cells was measured and quantified in real time by cell imaging using the Incucyte technology. […]

| Compound | level on IFNγ [1] | growth of tumor cells [2] |
| --- | --- | --- |
| O=C(O)CC1CC2(CCN(C(=O)NC3C4CC5CC(C4)CC3C5)CC2)c2c(Br)cccc21 (racemic) [10J, (+/-)-2-(7-bromo-1'-((2-adamantyl)carbamoyl)-2,3-dihydrospiro [indene-1,4'-piperidine]-3-yl) acetic acid] | significantly increased |  |
| CC(C)(O)c1cccn2c(C3(c4ccc(Cl)cc4)CC3)nnc12 [BMS-823778, 2-[3-[1-(4-chlorophenyl)cyclopropyl]-[1,2,4]triazolo[4,3-a]pyridin-8-yl]propan-2-ol] | significantly increased | inhibited the growth of tumor cells more efficiently than the single treatments |
| CC1(C)[C@@H](OC(=O)CCC(=O)O)CC[C@]2(C)[C@H]3C(=O)C=C4[C@@H]5C[C@@](C)(C(=O)O)CC[C@]5(C)CC[C@@]4(C)[C@]3(C)CC[C@@H]12 [carbenoxolone, (2S,4aS,6aR,6aS,6bR,8aR,10S,12aS,14bR )-10-(3-carboxypropanoyloxy)-2,4a,6a,6b,9,9,12a-heptamethyl-13-oxo-3,4,5,6,6a,7,8,8a,10,11,12,14b-dodecahydro-1H-picene-2-carboxylic acid] | significantly increased |  |
